Values after ≈ are worked out from the molar mass of the structure shown.
Key:
Listeria monocytogenes [1] = experiment: Antibacterial activity against Listeria monocytogenes isolated from humans harboring cat gene; assay type: functional
Listeria monocytogenes [2] = experiment: Antibacterial activity against Listeria monocytogenes isolated from humans harboring lde gene
Listeria monocytogenes [3] = experiment: Antibacterial activity against Listeria monocytogenes isolated from humans with putative chromosomal mutation; assay type: functional
Listeria monocytogenes [4] = experiment: Antibacterial activity against Listeria monocytogenes isolated from humans harboring int-tn gene; assay type: functional
Listeria monocytogenes [5] = experiment: Antibacterial activity against Listeria monocytogenes isolated from humans harboring tet(M) gene; assay type: functional
Listeria monocytogenes [6] = experiment: Antibacterial activity against Listeria monocytogenes isolated from humans harboring putative ribosomal mutation; assay type: functional
Listeria monocytogenes [7] = experiment: Antibacterial activity against Listeria monocytogenes isolated from humans harboring mutant dfrD gene

## O=C(N[C@H](CO)[C@H](O)c1ccc([N+](=O)[O-])cc1)C(Cl)Cl [CHLORAMPHENICOL]
Listeria monocytogenes [1]
  MIC: 48 µg/mL (≈ 149 µM)

## O=C(O)c1cn(C2CC2)c2cc(N3CCNCC3)c(F)cc2c1=O [CIPROFLOXACIN]
Listeria monocytogenes [2]
  MIC: > 6 µg/mL

## CC[C@H]1OC(=O)[C@H](C)[C@@H](O[C@H]2C[C@@](C)(OC)[C@@H](O)[C@H](C)O2)[C@H](C)[C@@H](O[C@@H]2O[C@H](C)C[C@H](N(C)C)[C@H]2O)[C@](C)(O)C[C@@H](C)C(=O)[C@H](C)[C@@H](O)[C@]1(C)O [ERYTHROMYCIN]
Listeria monocytogenes [3]
  MIC: 256 µg/mL (≈ 349 µM)

## CN(C)c1ccc(O)c2c1C[C@H]1C[C@H]3[C@H](N(C)C)C(O)=C(C(N)=O)C(=O)[C@@]3(O)C(O)=C1C2=O [MINOCYCLINE]
Listeria monocytogenes [4]
  MIC: 8 µg/mL (≈ 17.5 µM)
Listeria monocytogenes [5]
  MIC: 8 µg/mL (≈ 17.5 µM)

## CN[C@@H]1[C@H](O[C@H]2[C@H](O[C@H]3[C@H](O)[C@@H](O)[C@H](N=C(N)N)[C@@H](O)[C@@H]3N=C(N)N)O[C@@H](C)[C@]2(O)C=O)O[C@@H](CO)[C@H](O)[C@H]1O [STREPTOMYCIN]
Listeria monocytogenes [6]
  MIC: 256 µg/mL (≈ 440 µM)

## CN(C)[C@@H]1C(O)=C(C(N)=O)C(=O)[C@@]2(O)C(O)=C3C(=O)c4c(O)cccc4[C@@](C)(O)[C@H]3C[C@@H]12 [TETRACYCLINE]
Listeria monocytogenes [4]
  MIC: 16 µg/mL (≈ 36 µM)
Listeria monocytogenes [5]
  MIC: 16 µg/mL (≈ 36 µM)

## COc1cc(Cc2cnc(N)nc2N)cc(OC)c1OC [TRIMETHOPRIM]
Listeria monocytogenes [7]
  MIC: 1020 µg/mL (≈ 3530 µM)
